From PMC4955782 (Archives of biochemistry and biophysics, 2016)
Where two headings read alike, the source gives them in different places.

Tests used:
cultured cells = details: cited from earlier work
tubulin [1] = biological target: tubulin (Bos taurus, UniProt P81947+Q6B856); assay: Aberrant tubulin assembly; details: for extent of aberrant assembly reaction (turbidity), % of its maximum: within 20 min at 0 °C, 10 μM compound, 10 μM tubulin, 0.6 M glutamate, 1.0 mM MgCl2, 50 μM GTP
αβ-tubulin dimer = assay: Binding of radiolabeled compounds to αβ-tubulin dimer; set-up: species or system bovine; details: radiolabeled compound
tubulin [2] = type: binding, bovine; details: for maximum stoichiometry of compound incorporation into aberrant polymer: 80 μM compound; for compound incorporated into induced polymers, as little as: substoichiometric reactions (abstract)
tubulin [3] = assay: Polymer formation without GTP at 0 °C; type: biochemical, bovine; details: no GTP; for spiral formation (centrifugation study, Fig. 7A): 10 μM tubulin, concentrations up to 30 μM; for % tubulin in polymer ± SE: single compound 30 μM, 20 min, 1.0 mg/mL tubulin
tubulin [4] = assay: Inhibition of MAP-dependent microtubule assembly; type: biochemical, bovine
tubulin [5] = details: reported by David et al.; cited from earlier work
[6] = 5 μM compound, 10 μM tubulin, 22 °C, 30 min
[7] = 10 μM radiolabeled ligand alone (Table 3)
[8] = compound and tubulin equimolar (10 μM each)

tubulin (Bos taurus, UniProt P81947+Q6B856), sequence (P81947 whole entry): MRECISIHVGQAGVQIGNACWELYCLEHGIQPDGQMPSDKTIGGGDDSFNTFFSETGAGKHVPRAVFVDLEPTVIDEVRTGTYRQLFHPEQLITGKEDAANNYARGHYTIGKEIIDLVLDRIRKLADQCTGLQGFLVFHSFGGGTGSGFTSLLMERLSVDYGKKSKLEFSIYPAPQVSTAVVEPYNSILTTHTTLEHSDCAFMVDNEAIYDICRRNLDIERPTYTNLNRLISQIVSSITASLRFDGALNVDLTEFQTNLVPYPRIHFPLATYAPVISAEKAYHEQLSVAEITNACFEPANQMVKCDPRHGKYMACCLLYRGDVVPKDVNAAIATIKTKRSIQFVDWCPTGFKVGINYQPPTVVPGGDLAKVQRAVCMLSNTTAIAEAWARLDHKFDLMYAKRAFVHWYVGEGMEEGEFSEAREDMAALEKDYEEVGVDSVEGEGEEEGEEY
tubulin (Bos taurus, UniProt P81947+Q6B856), sequence (Q6B856 whole entry): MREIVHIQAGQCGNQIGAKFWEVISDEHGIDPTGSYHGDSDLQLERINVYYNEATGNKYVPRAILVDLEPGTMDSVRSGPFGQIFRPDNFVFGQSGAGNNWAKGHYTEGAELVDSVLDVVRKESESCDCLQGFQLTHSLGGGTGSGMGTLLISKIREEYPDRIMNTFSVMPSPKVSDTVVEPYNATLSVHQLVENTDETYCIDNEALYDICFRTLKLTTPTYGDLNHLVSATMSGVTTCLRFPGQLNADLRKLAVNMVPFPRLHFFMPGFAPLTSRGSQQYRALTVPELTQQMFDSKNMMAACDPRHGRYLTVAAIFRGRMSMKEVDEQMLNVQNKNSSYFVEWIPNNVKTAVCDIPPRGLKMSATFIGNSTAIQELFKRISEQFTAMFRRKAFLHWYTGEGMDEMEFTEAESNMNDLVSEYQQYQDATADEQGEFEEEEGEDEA

## (−)-Rhazinilam [reference compound]
Cultured cells
  IC50 values in treated cells: low μM range
Tubulin [1]
  extent of aberrant assembly reaction (turbidity), % of its maximum: little or no change in turbidity
αβ-tubulin dimer
  binding to the αβ-tubulin dimer: unable to demonstrate binding
Tubulin [2]; [6]
  % of the tubulin in polymer pellet: 53%
Tubulin [2]; 10 μM [3H]NSC 613241 plus 80 μM nonradiolabeled inhibitor
  % tubulin recovered in pellet: 95 ± 5.2%
Tubulin [2]; [7]
  % tubulin recovered in pellet: 37 ± 5.1%
Tubulin [2]; 20 μM compound, 10 μM tubulin
  % of the tubulin in polymer pellet: about 90%
Tubulin [2]; 40 μM compound, 10 μM tubulin
  % of the tubulin in polymer: ~100%
  stoichiometry of compound to tubulin in the pellets: 0.47
Tubulin [2]; 10 μM tubulin
  maximum stoichiometry of compound incorporation into aberrant polymer: 0.68
Tubulin [2]; [8]
  stoichiometry of compound to tubulin in the pellets: 0.13
Tubulin [2]
  compound incorporated into induced polymers, as little as: 0.1–0.2 mol compound/mol of tubulin
Tubulin [3]
  spiral formation (centrifugation study, Fig. 7A): minimal
  % tubulin in polymer ± SE: 0 ± 2%

## Cc1c(-c2ccccc2)nn(CC(=O)O)c(=O)c1C#N [NSC 608602]
Tubulin [4]
  effect on microtubule assembly: no significant effect on microtubule assembly

## N#Cc1c(-c2ccc(F)cc2)c(-c2ccc(F)cc2)nn(Cc2nn[nH]n2)c1=O [NSC 613241]
Tubulin [1]; 0 °C, 0.6 M monosodium glutamate, 50 μM GTP, 1 mM MgCl2, 2% dimethyl sulfoxide
  delay of aberrant assembly after addition of compound: about 1 min
Tubulin [1]
  extent of aberrant assembly reaction (turbidity), % of its maximum: 30–35%
αβ-tubulin dimer
  binding to the αβ-tubulin dimer: unable to demonstrate binding
Tubulin [2]; [6]
  % of the tubulin in polymer pellet: 73%
Tubulin [2]; 10 μM [3H](−)-rhazinilam plus 80 μM nonradiolabeled inhibitor
  % tubulin recovered in pellet: 89 ± 6.4%
Tubulin [2]; [7]
  % tubulin recovered in pellet: 72 ± 5.4%
Tubulin [2]; 10 μM radiolabeled ligand alone, 22 °C, 30 min (Table 3)
  Ligand bound/tubulin in aberrant polymer ± SD: 0.15 ± 0.013
Tubulin [2]; 20 μM compound, 10 μM tubulin
  % of the tubulin in polymer pellet: about 90%
Tubulin [2]; 40 μM compound, 10 μM tubulin
  % of the tubulin in polymer: ~100%
  stoichiometry of compound to tubulin in the pellets: 0.42
Tubulin [2]; 10 μM tubulin
  maximum stoichiometry of compound incorporation into aberrant polymer: 0.62
Tubulin [2]; [8]
  stoichiometry of compound to tubulin in the pellets: 0.11
Tubulin [2]
  compound incorporated into induced polymers, as little as: 0.1–0.2 mol compound/mol of tubulin
Tubulin [3]
  spiral formation (centrifugation study, Fig. 7A): minimal
  % tubulin in polymer ± SE: 0 ± 2%

## Cc1nn(CC(=O)O)c(=O)c(C#N)c1-c1ccccc1 [NSC 608600]
Tubulin [4]
  effect on microtubule assembly: no significant effect on microtubule assembly

## COc1cc2cc(c1Cl)N(C)C(=O)C[C@H](OC(=O)[C@H](C)N(C)C(C)=O)[C@]1(C)O[C@H]1[C@H](C)[C@@H]1C[C@@](O)(NC(=O)O1)[C@H](OC)/C=C/C=C(\C)C2 [Maytansine]
Tubulin [5]
  inhibition of (−)-rhazinilam aberrant assembly reaction: inhibited

## N#Cc1c(-c2ccccc2)c(-c2ccccc2)nn(Cc2nn[nH]n2)c1=O [NSC 608593]
Tubulin [3]
  % tubulin in polymer ± SE: 0 ± 1%

## CC[C@]1(O)C[C@@H]2CN(CCc3c([nH]c4ccccc34)[C@@](C(=O)OC)(c3cc4c(cc3OC)N(C)[C@H]3[C@@](O)(C(=O)OC)[C@H](OC(C)=O)[C@]5(CC)C=CCN6CC[C@]43[C@@H]65)C2)C1 [Vinblastine]
Tubulin [5]
  inhibition of (−)-rhazinilam aberrant assembly reaction: inhibited
